Literature values, collected in patent US20240100019A1, “COMPOSITIONS COMPRISING A THERMOREVERSIBLE HYDROGEL, AND HAVING AN EXTENDED IN-USE PERIOD” (UroGen Pharma Ltd., priority 2022, published 2024).
Where two headings read alike, the source gives them in different places.

Tests used:
[1] = room temperature; pH 4.5, 5.5, 6.0 and 7.0 solutions

For `CO[C@@]12[C@H](COC(N)=O)C3=C(C(=O)C(C)=C(N)C3=O)N1C[C@@H]1N[C@@H]12` [mitomycin C], the “time at which MMC was unstable (less than 90% of the initial value)” value [1] is given as under 24 h, the “time for which MMC was stable (relative concentrations systematically over 90% of the initial concentrations)” value (0.2 mg/ml in 0.9% sodium chloride solution) is given as 10 h and the “relative MMC concentration as compared to initial concentration” value (after 96 h, these solutions) is given as “below 80%”. For the same molecule, the “time for which MMC was stable (relative concentrations systematically over 90% of the initial concentrations)” value (in water for injections at a concentration of 1 mg/mL) was 8 h and the degradation products observed (reconstituted and diluted solutions) was “below 3%”.
